# Test results published in patent US9284333B2, “Fused pyrroledicarboxamides and their use as pharmaceuticals” (SANOFI, priority 2012, dated 2016).
# Target: Human TASK-1 channels (Homo sapiens (Human), UniProt O14649)
# Experiment: Determination of the activity on the TASK-1 channel in Xenopus oocytes (two-microelectrode voltage clamp)
# Format: cell-based
# Conditions: for IC50: human TASK-1 expressed in Xenopus oocytes, room temperature, read-out: IC50 value for TASK-1 inhibition; for inhibition at 5 µM: compound concentration 5 μM
# Method: Determination of the activity on the TASK-1 channel in Xenopus oocytes
# Human TASK-1 channels were expressed in Xenopus oocytes. For this purpose, oocytes were isolated from Xenopus laevis and defoliculated. Subsequently, TASK-1-encoding RNA synthesized in vitro was injected into the oocytes. After two days of TASK-1 protein expression, TASK-1 currents were measured by two-microelectrode voltage clamp. Data were acquired and analyzed using a TEC-10cx amplifier (NPI Electronic, Tamm, Germany) connected to an ITC-16 interface (Instrutech Corp., Long Island, USA) and Pulse software (HEKA Elektronik, Lambrecht, Germany). Oocytes were clamped to −90 mV and TASK-1 mediated currents were measured during 500 ms voltage pulses to 40 mV. Oocytes were continuously superfused with ND96 buffer containing 96 mM sodium chloride, 2 mM potassium chloride, 1.8 mM calcium chloride, 1 mM magnesium chloride, 5 mM 4-(2-hydroxyethyl)-piperazine-1-ethanesulfonic acid (HEPES; pH adjusted to 7.4 with sodium hydroxide). All experiments were performed at room temperature. Test compounds were consecutively added to the bath solution at rising concentrations. Compound effects were calculated as the percentage inhibition of TASK-1 control current before compound addition. IC50 values were obtained by fitting the data to the general dose-response equation.
# Chain of Human TASK-1 channels (O14649 whole entry): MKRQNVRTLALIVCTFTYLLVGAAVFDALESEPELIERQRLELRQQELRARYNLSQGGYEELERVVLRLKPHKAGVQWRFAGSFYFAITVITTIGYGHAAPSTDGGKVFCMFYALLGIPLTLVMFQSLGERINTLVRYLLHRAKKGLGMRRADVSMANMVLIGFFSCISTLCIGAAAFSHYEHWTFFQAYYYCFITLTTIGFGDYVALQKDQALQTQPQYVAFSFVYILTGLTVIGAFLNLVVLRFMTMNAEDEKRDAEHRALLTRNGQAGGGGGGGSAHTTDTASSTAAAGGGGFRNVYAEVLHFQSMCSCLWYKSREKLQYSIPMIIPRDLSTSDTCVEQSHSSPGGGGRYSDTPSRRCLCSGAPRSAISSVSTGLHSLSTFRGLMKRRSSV
Compound,IC50,inhibition at 5 µM
"CC[C@@H](NC(=O)c1cc(C(=O)N2CCCC2)n2c1COCC2)c1ccccc1C(F)(F)F [16da, 6-(Pyrrolidine-1-carbonyl)-3,4-dihydro-1H-pyrrolo[2,1-c][1,4]oxazine-8-carboxylic acid [(R)-1-(2-trifluoromethyl-phenyl)-propyl]-amide]",440 nM,–
"CC[C@@H](NC(=O)c1cc(C(=O)NCc2cncc(F)c2)n2c1COCC2)c1ccccc1 [16gu, 3,4-Dihydro-1H-pyrrolo[2,1-c][1,4]oxazine-6,8-dicarboxylic acid 6-[(5-fluoro-pyridin-3-ylmethyl)-amide] 8-[((R)-1-phenyl-propyl)-amide]]",640 nM,–
"CC[C@@H](NC(=O)c1cc(C(=O)N2CCC[C@@H]2C)c2n1CCOC2)c1ccc(C#N)cc1 [16nl, 8-((S)-2-Methyl-pyrrolidine-1-carbonyl)-3,4-dihydro-1H-pyrrolo[2,1-c][1,4]oxazine-6-carboxylic acid [(R)-1-(4-cyano-phenyl)-propyl]-amide]",–,70%
"CC[C@@H](NC(=O)c1cc(C(=O)N2CC[C@H](OC)C2)n2c1COCC2)c1ccccc1 [16ek, 6-((S)-3-Methoxy-pyrrolidine-1-carbonyl)-3,4-dihydro-1H-pyrrolo[2,1-c][1,4]oxazine-8-carboxylic acid ((R)-1-phenyl-propyl)-amide]",560 nM,–
"CC[C@@H](NC(=O)c1cc(C(=O)N2CCCC2CN2CCOCC2)n2c1COCC2)c1ccccc1 (stereo partly drawn) [16fr, 6-(2-Morpholin-4-ylmethyl-pyrrolidine-1-carbonyl)-3,4-dihydro-1H-pyrrolo[2,1-c][1,4]oxazine-8-carboxylic acid ((R)-1-phenyl-propyl)-amide]",1300 nM,–
"CC[C@@H](NC(=O)c1cc(C(=O)N[C@H](CC)c2ccc(OC)nc2)n2c1COCC2)c1ccccc1 [16j, 3,4-Dihydro-1H-pyrrolo[2,1-c][1,4]oxazine-6,8-dicarboxylic acid 6-{[(R)-1-(6-methoxy-pyridin-3-yl)-propyl]-amide} 8-[((R)-1-phenyl-propyl)-amide]]",200 nM,–
"CC[C@@H](NC(=O)c1cc(C(=O)N2CCC[C@@H]2C)n2c1COCC2)c1ccc(C#N)nc1 [16aa, 6-((S)-2-Methyl-pyrrolidine-1-carbonyl)-3,4-dihydro-1H-pyrrolo[2,1-c][1,4]oxazine-8-carboxylic acid [(R)-1-(6-cyano-pyridin-3-yl)-propyl]-amide]",2400 nM,–
"CC[C@H](NC(=O)c1cc(C(=O)N2CCC[C@@H]2C)n2c1COCC2)c1c(F)cc(C(F)(F)F)cc1F [16cm, 6-((S)-2-Methyl-pyrrolidine-1-carbonyl)-3,4-dihydro-1H-pyrrolo[2,1-c][1,4]oxazine-8-carboxylic acid [(S)-1-(2,6-difluoro-4-trifluoromethyl-phenyl)-propyl]-amide]",–,85%
"6-((S)-2-Methyl-pyrrolidine-1-carbonyl)-3(4-dihydro-1H-pyrrolo[2,1-c][1,4]oxazine-8-carboxylic acid [(R)-1-(2,2-difluoro-benzo[1,3]dioxol-5-yl)-propyl]-amide [16bz]",200 nM,–
"CC[C@@H](NC(=O)c1cc(C(=O)N[C@H](CC)c2ccccc2)n2c1CCCC2)c1ccccc1 [16ma, 5,6,7,8-Tetrahydro-indolizine-1,3-dicarboxylic acid bis-[((R)-1-phenyl-propyl)-amide]]",51 nM,–
"CC[C@@H](NC(=O)c1cc(C(=O)N2CCOCC2)n2c1COCC2)c1ccccc1 [16eh, 6-(Morpholine-4-carbonyl)-3,4-dihydro-1H-pyrrolo[2,1-c][1,4]oxazine-8-carboxylic acid ((R)-1-phenyl-propyl)-amide]",1700 nM,–
"CC[C@@H](NC(=O)c1cc(C(=O)N2CCC[C@@H]2C)n2c1COCC2)c1ccccn1 [16ph, 6-((S)-2-Methyl-pyrrolidine-1-carbonyl)-3,4-dihydro-1H-pyrrolo[2,1-c][1,4]oxazine-8-carboxylic acid ((R)-1-pyridin-2-yl-propyl)-amide]",650 nM,–
"CC[C@@H](NC(=O)c1cc(C(=O)N2CCC[C@H]2C)n2c1COCC2)c1ccccc1 [16ej, 6-((R)-2-Methyl-pyrrolidine-1-carbonyl)-3,4-dihydro-1H-pyrrolo[2,1-c][1,4]oxazine-8-carboxylic acid ((R)-1-phenyl-propyl)-amide]",260 nM,–
"CC[C@@H](NC(=O)c1cc(C(=O)N2CCC[C@@H]2C)n2c1COCC2)c1cccnc1C(F)(F)F [16r, 6-((S)-2-Methyl-pyrrolidine-1-carbonyl)-3,4-dihydro-1H-pyrrolo[2,1-c][1,4]oxazine-8-carboxylic acid [(R)-1-(2-trifluoromethyl-pyridin-3-yl)-propyl]-amide]",1900 nM,–
"CC[C@@H](NC(=O)c1cc(C(=O)N2CCC[C@@H]2C)n2c1CCCC2)c1ccc(C#N)nc1 [16lv, 3-((S)-2-Methyl-pyrrolidine-1-carbonyl)-5,6,7,8-tetrahydro-indolizine-1-carboxylic acid [(R)-1-(6-cyano-pyridin-3-yl)-propyl]-amide]",2100 nM,–
"CC(C)[C@@H](NC(=O)c1cc(C(=O)N[C@@H](C)c2ncccn2)c2n1CCOC2)c1ccc(F)cc1 (racemic) [16lr, 3,4-Dihydro-1H-pyrrolo[2,1-c][1,4]oxazine-6,8-dicarboxylic acid 6-{[(R)-1-(4-fluoro-phenyl)-2-methyl-propyl]-amide} 8-[((S)-1-pyrimidin-2-yl-ethyl)-amide]]",360 nM,–
"CC[C@@H](NC(=O)c1cc(C(=O)N2CCC[C@@H]2C(F)(F)F)n2c1COCC2)c1ccccc1 [16eu, 6-((R)-2-Trifluoromethyl-pyrrolidine-1-carbonyl)-3,4-dihydro-1H-pyrrolo[2,1-c][1,4]oxazine-8-carboxylic acid ((R)-1-phenyl-propyl)-amide]",49 nM,–
"CC[C@@H](NC(=O)c1cc(C(=O)N[C@H](CC)c2cccc(O)c2)n2c1COCC2)c1ccccc1 [16ix, 3,4-Dihydro-1H-pyrrolo[2,1-c][1,4]oxazine-6,8-dicarboxylic acid 6-{[(R)-1-(3-hydroxy-phenyl)-propyl]-amide} 8-[((R)-1-phenyl-propyl)-amide]]",360 nM,–
"CC[C@@H](NC(=O)c1cc(C(=O)N[C@H](CO)C(C)C)n2c1COCC2)c1ccccc1 [16iz, 3,4-Dihydro-1H-pyrrolo[2,1-c][1,4]oxazine-6,8-dicarboxylic acid 6-[((S)-1-hydroxymethyl-2-methyl-propyl)-amide] 8-[((R)-1-phenyl-propyl)-amide]]",1900 nM,–

# Results, then the compound that gave them:
IC50,inhibition at 5 µM,Compound
3700 nM,–,"CC[C@@H](NC(=O)c1cc(C(=O)N2CCCC2C(C)(C)O)n2c1COCC2)c1ccccc1 (stereo partly drawn) [16ew, 6-[2-(1-Hydroxy-1-methyl-ethyl)-pyrrolidine-1-carbonyl]-3,4-dihydro-1H-pyrrolo[2,1-c][1,4]oxazine-8-carboxylic acid ((R)-1-phenyl-propyl)-amide]"
–,82%,"CC[C@@H](NC(=O)c1cc(C(=O)N[C@H](CC)c2nccs2)n2c1COCC2)c1ccc(C(F)(F)F)nc1 (racemic) [16pd, 3,4-Dihydro-1H-pyrrolo[2,1-c][1,4]oxazine-6,8-dicarboxylic acid 6-[((R)-1-thiazol-2-yl-propyl)-amide] 8-{[(R)-1-(6-trifluoromethyl-pyridin-3-yl)-propyl]-amide}]"
280 nM,–,"CC[C@@H](NC(=O)c1cc(C(=O)NC(C)c2ncccn2)c2n1CCOC2)c1ccc(F)cc1Cl (stereo partly drawn) [16kp, 3,4-Dihydro-1H-pyrrolo[2,1-c][1,4]oxazine-6,8-dicarboxylic acid 6-{[(R)-1-(2-chloro-4-fluoro-phenyl)-propyl]-amide} 8-[(1-pyrimidin-2-yl-ethyl)-amide]]"
48 nM,–,"CC[C@@H](NC(=O)c1cc(C(=O)N[C@@H](c2ccccc2)C2CC2)n2c1CCCC2)c1ccccc1 [16mv, 5,6,7,8-Tetrahydro-indolizine-1,3-dicarboxylic acid 3-[((R)-cyclopropyl-phenyl-methyl)-amide] 1-[((R)-1-phenyl-propyl)-amide]]"
–,36%,"CC[C@@H](NC(=O)c1cc(C(=O)NCc2cccnn2)n2c1COCC2)c1ccccc1 [16jf, 3,4-Dihydro-1H-pyrrolo[2,1-c][1,4]oxazine-6,8-dicarboxylic acid 8-[((R)-1-phenyl-propyl)-amide] 6-[(pyridazin-3-ylmethyl)-amide]]"
90 nM,–,"CC[C@@H](NC(=O)c1cc(C(=O)N2CCCC2)n2c1COCC2)c1ccc(F)cc1Cl [16db, 6-(Pyrrolidine-1-carbonyl)-3,4-dihydro-1H-pyrrolo[2,1-c][1,4]oxazine-8-carboxylic acid [(R)-1-(2-chloro-4-fluoro-phenyl)-propyl]-amide]"
380 nM,–,"CC[C@@H](NC(=O)c1cc(C(=O)N2CCCC2C(C)C)n2c1COCC2)c1ccccc1 (stereo partly drawn) [16el, 6-(2-Isopropyl-pyrrolidine-1-carbonyl)-3,4-dihydro-1H-pyrrolo[2,1-c][1,4]oxazine-8-carboxylic acid ((R)-1-phenyl-propyl)-amide]"
2600 nM,–,"CC[C@@H](NC(=O)c1cc(C(=O)N2CCC[C@@H]2C)n2c1COCC2)c1cccc(O)c1 [16ab, 6-((S)-2-Methyl-pyrrolidine-1-carbonyl)-3,4-dihydro-1H-pyrrolo[2,1-c][1,4]oxazine-8-carboxylic acid [(R)-1-(3-hydroxy-phenyl)-propyl]-amide]"
